# Earlier results, collected in patent US10258598B2, “Compounds for use in the prevention or treatment of cancer” ([…], priority 2014, dated 2019).
# Counter-ions that a name gives are not always drawn.
# Test system: norepinephrine and dopamine stores in catecholaminergic neurons in the brain stem
# Conditions: 1 mg/kg s.c.; cited from earlier work
structure (smiles),measurement,value
"COc1cc2c(cc1OC)C1CC(=O)C(CC(C)C)CN1CC2 (stereo not shown) [Tetrabenazine, Tetrabenazine HCl]",depletion of norepinephrine and dopamine from their stores,at least 90%
